From PMC8536124 (International Journal of Molecular Sciences, 2021)
Read-outs that look alike come from different tables or passages of the source.

How the values were obtained:
MDA-MB-468 = test: NCI-60 screening (SRB); assay type: cell-based, human; details: five-dose
MOLT-4 = test: NCI-60 screening (SRB); assay type: cell-based, human; details: five-dose
786-0 = test: NCI-60 screening (SRB); assay type: cell-based, human; details: five-dose
U251 = test: NCI-60 screening (SRB); assay type: cell-based, human; details: U251, five-dose
MDA-MB-435 = test: NCI-60 screening (SRB); assay type: cell-based, human; details: five-dose
SK-MEL-28 = test: NCI-60 screening (SRB); assay type: cell-based, human
SF-268 = test: NCI-60 screening (SRB); assay type: cell-based, human; details: five-dose
PC-3 = test: NCI-60 screening (SRB); assay type: cell-based, human; details: five-dose
[1] = tested on: NCI-60 cancer cell line panel; test: NCI-60 screening (SRB), full panel; assay type: cell-based, human; details: for activity at 10 µM: 60 cell lines, 48 h
Text: (§1) The experimental data allow the assessment of the cytostatic effect, indicated by growth inhibition values ranging between 0 and 100, as well as of the cytotoxic effect, indicated by negative values.
(§2) The mean GI50 (molar concentration of the compound that inhibits 50% net cell growth), TGI (molar concentration of the compound leading to the total inhibition), and LC50 (molar concentration of the compound leading to 50% net cell death (presented in negative logarithm)) values across each cell line are shown in Table 2.
(§3) The selectivity index (SI), calculated as the ratio between the full panel MG_MID60 (μM) of compounds 4, 6, and 9 by their respective subpanels MG_MID of the cell line (μM), was introduced as a quantification tool for the selectivity of each compound in terms of anticancer effect (Table 3).
(§4) Primary anticancer assays were performed according to the NCI protocol, as described elsewhere (see e.g., http://dtp.nci.nih.gov accessed on 1 November 2018). The compounds were added at a single concentration, and the cell cultures were incubated for 48 h. The end point determinations were made with a protein-binding dye, sulforhodamine B (SRB). […] The percentage of growth was evaluated spectrophotometrically versus controls not treated with test agents after 48 h exposure and using SRB protein assay to estimate cell viability or growth. Three antitumor activity dose-response parameters were calculated for each cell line. Furthermore, mean graph midpoints (MG_MID) were calculated for each of the parameters, giving an average activity parameter over all cell lines for the tested compound. For the MG_MID calculation, insensitive cell lines were included with the highest concentration tested.

HCT-116 = test: NCI-60 screening (SRB); assay type: cell-based, human; details: five-dose
Melanoma = test: NCI-60 screening (SRB), subpanel; assay type: cell-based
Text: as §1, §2, §3, §4

Colon Cancer = test: NCI-60 screening (SRB), subpanel; assay type: cell-based
Text: as §1, §2, §3, §4

Prostate cancer = test: NCI-60 screening (SRB), subpanel; assay type: cell-based
Text: as §1, §2, §3, §4

Breast cancer = test: NCI-60 screening (SRB), subpanel; assay type: cell-based
Text: as §1, §2, §3, §4

Ovarian cancer = test: NCI-60 screening (SRB), subpanel; assay type: cell-based
Text: as §1, §2, §3, §4

Leukemia = test: NCI-60 screening (SRB), subpanel; assay type: cell-based; details: Leukemia; MG_MID60/subpanel MG_MID
Text: as §1, §2, §3, §4

Renal Cancer = test: NCI-60 screening (SRB), subpanel; assay type: cell-based
Text: as §1, §2, §3, §4

NSC lung cancer = test: NCI-60 screening (SRB), subpanel; assay type: cell-based
Text: as §1, §2, §3, §4

ACHN = test: NCI-60 screening (SRB); assay type: cell-based, human; details: five-dose
SK-MEL-2 = test: NCI-60 screening (SRB); assay type: cell-based, human; details: five-dose
SW-620 = test: NCI-60 screening (SRB); assay type: cell-based, human; details: five-dose
MDA-MB-31/ATCC = test: NCI-60 screening (SRB); assay type: cell-based, human; details: five-dose
HCC-2998 = test: NCI-60 screening (SRB); assay type: cell-based, human; details: five-dose
CNS cancer = test: cells; assay type: cell-based
Text: as §1, §2, §3, §4

[2] = Homo sapiens, read-out: LC50 (the source's name)

Q: CCN1CCN(C(=O)[C@]23CC[C@@H](C)[C@H](C)[C@H]2C2=CC[C@@H]4[C@@]5(C)CCC(=O)C(C)(C)[C@@H]5CC[C@@]4(C)[C@]2(C)CC3)CC1 [Compound 4, N-(3-oxo-ursan-12-en-28-oyl)-ethylpiperazine] was tested. Which GI50 (MDA-MB-468; Homo sapiens) did it give?
A: 0.931 µM

Q: And the CC50 (MDA-MB-468; [2])?
A: 9.27 µM

Q: What about the TGI (MDA-MB-468) of the same compound?
A: 2.32 µM

Q: And the GI50 (MOLT-4; Homo sapiens)?
A: 0.994 µM

Q: What about the CC50 (MOLT-4; [2]) of the same compound?
A: > 50 µM

Q: And the TGI (MOLT-4)?
A: 2.90 µM

Q: And the GI50 (786-0; Homo sapiens)?
A: 0.814 µM

Q: What about the CC50 (786-0; [2]) of the same compound?
A: 3.56 µM

Q: And the TGI (786-0)?
A: 1.70 µM

Q: What about the GI50 (U251; Homo sapiens, U-251) of the same compound?
A: 0.854 µM

Q: And the CC50 (U251; Homo sapiens, U-251, read-out: LC50 (the source's name))?
A: 4 µM

Q: And the TGI (U251)?
A: 1.85 µM

Q: What about the GI50 (MDA-MB-435; Homo sapiens) of the same compound?
A: 1.05 µM

Q: And the CC50 (MDA-MB-435; [2])?
A: 5.22 µM

Q: What about the TGI (MDA-MB-435) of the same compound?
A: 2.30 µM

Q: What about the Growth % (SK-MEL-28; 1 dose 10 µM) of the same compound?
A: −64.66%

Q: And the GI50 (SK-MEL-28; Homo sapiens, five-dose)?
A: 0.889 µM

Q: And the CC50 (SK-MEL-28; Homo sapiens, five-dose, read-out: LC50 (the source's name))?
A: 3.27 µM

Q: What about the TGI (SK-MEL-28; five-dose) of the same compound?
A: 1.70 µM

Q: And the GI50 (SF-268; Homo sapiens)?
A: 1.77 µM

Q: And the CC50 (SF-268; [2])?
A: 24.6 µM

Q: And the TGI (SF-268)?
A: 6.49 µM

Q: What about the GI50 (PC-3; Homo sapiens) of the same compound?
A: 0.875 µM

Q: What about the CC50 (PC-3; [2]) of the same compound?
A: 18.3 µM

Q: And the TGI (PC-3)?
A: 3.17 µM

Q: And the “Positive Cytostatic Effect (cell lines with percent growth 0 to 50 / total)” value ([1]; 1 dose 10 µM)?
A: 60/60

Q: And the “Positive Cytotoxic Effect (cell lines with percent growth <0 / total)” value ([1]; 1 dose 10 µM)?
A: 60/60

Q: And the GI50 ([1]; Homo sapiens, five-dose, bound, read-out: GI50 against all human tumor cells)?
A: < 2 µM

Q: And the GI50 ([1]; Homo sapiens, five-dose, read-out: GI50 against the most sensitive cell lines)?
A: 0.7 to 0.99 µM

Q: And the GI50 ([1]; Homo sapiens, mean graph midpoint, full panel, five-dose, read-out: GI50 MG_MID60)?
A: 1.03 µM

Q: What about the CC50 ([1]; Homo sapiens, mean graph midpoint, full panel, five-dose, read-out: LC50 MG_MID60) of the same compound?
A: 12.3 µM

Q: And the activity at 10 µM ([1]; Homo sapiens, 1 dose 10 µM, read-out: Mean Growth, %)?
A: -10.5%

Q: What about the activity at 10 µM ([1]; Homo sapiens, 1 dose 10 µM, read-out: Range of Growth, %) of the same compound?
A: -85.7 to -41.5%

Q: What about the selectivity class ([1]; all GI50, TGI, and LC50 levels) of the same compound?
A: nonselective (ratios below 3 indicate nonselective compounds)

Q: What about the “TGI MG_MID60” value ([1]; mean graph midpoint, full panel, five-dose) of the same compound?
A: 2.74 µM

Q: And the GI50 (HCT-116; Homo sapiens)?
A: 0.798 µM

Q: And the CC50 (HCT-116; [2])?
A: 3.09 µM

Q: What about the TGI (HCT-116) of the same compound?
A: 1.57 µM

Q: What about the GI50 (Melanoma; Homo sapiens, Melanoma subpanel, five-dose, read-out: GI50 MG_MID) of the same compound?
A: 0.93 µM

Q: And the CC50 (Melanoma; Homo sapiens, Melanoma subpanel, five-dose, read-out: LC50 MG_MID)?
A: 4.94 µM

Q: What about the “TGI MG_MID” value (Melanoma; Melanoma subpanel, five-dose) of the same compound?
A: 1.93 µM

Q: What about the “SI (TGI)” value (Melanoma; Melanoma, MG_MID60/subpanel MG_MID) of the same compound?
A: 1.42

Q: What about the “TGI MG_MID” value (Colon Cancer; Colon Cancer subpanel, five-dose) of the same compound?
A: 2.03 µM

Q: And the “SI (TGI)” value (Colon Cancer; Colon Cancer, MG_MID60/subpanel MG_MID)?
A: 1.35

Q: And the GI50 (Colon Cancer; Homo sapiens, Colon Cancer subpanel, five-dose, read-out: GI50 MG_MID)?
A: 0.94 µM

Q: What about the CC50 (Colon Cancer; Homo sapiens, Colon Cancer subpanel, five-dose, read-out: LC50 MG_MID) of the same compound?
A: 5.92 µM

Q: And the GI50 (Prostate cancer; Homo sapiens, Prostate cancer subpanel, five-dose, read-out: GI50 MG_MID)?
A: 1.27 µM

Q: And the CC50 (Prostate cancer; Homo sapiens, Prostate cancer subpanel, five-dose, read-out: LC50 MG_MID)?
A: 18.4 µM

Q: What about the “TGI MG_MID” value (Prostate cancer; Prostate cancer subpanel, five-dose) of the same compound?
A: 4.40 µM

Q: What about the “SI (TGI)” value (Prostate cancer; Prostate cancer, MG_MID60/subpanel MG_MID) of the same compound?
A: 0.62

Q: And the “TGI MG_MID” value (Breast cancer; Breast cancer subpanel, five-dose)?
A: 2.33 µM

Q: What about the “SI (TGI)” value (Breast cancer; Breast cancer, MG_MID60/subpanel MG_MID) of the same compound?
A: 1.17

Q: What about the GI50 (Breast cancer; Homo sapiens, Breast cancer subpanel, five-dose, read-out: GI50 MG_MID) of the same compound?
A: 0.97 µM

Q: And the CC50 (Breast cancer; Homo sapiens, Breast cancer subpanel, five-dose, read-out: LC50 MG_MID)?
A: 16.1 µM

Q: And the GI50 (Ovarian cancer; Homo sapiens, Ovarian cancer subpanel, five-dose, read-out: GI50 MG_MID)?
A: 1.19 µM

Q: And the CC50 (Ovarian cancer; Homo sapiens, Ovarian cancer subpanel, five-dose, read-out: LC50 MG_MID)?
A: 16.2 µM

Q: What about the “SI (TGI)” value (Ovarian cancer; Ovarian Cancer, MG_MID60/subpanel MG_MID) of the same compound?
A: 0.77

Q: What about the “TGI MG_MID” value (Ovarian cancer; Ovarian cancer subpanel, five-dose) of the same compound?
A: 3.55 µM

Q: And the “SI (TGI)” value (Leukemia)?
A: 1.12

Q: And the GI50 (Renal Cancer; Homo sapiens, Renal cancer subpanel, five-dose, read-out: GI50 MG_MID)?
A: 0.95 µM

Q: What about the LC50 (50% net cell kill) (Renal Cancer; Homo sapiens, Renal cancer subpanel, five-dose, read-out: LC50 MG_MID) of the same compound?
A: 8.38 µM

Q: And the “SI (TGI)” value (Renal Cancer; Renal Cancer, MG_MID60/subpanel MG_MID)?
A: 1.08

Q: And the “TGI MG_MID” value (Renal Cancer; Renal cancer subpanel, five-dose)?
A: 2.53 µM

Q: What about the GI50 (NSC lung cancer; Homo sapiens, NSC lung cancer subpanel, five-dose, read-out: GI50 MG_MID) of the same compound?
A: 1.18 µM

Q: And the CC50 (NSC lung cancer; Homo sapiens, NSC lung cancer subpanel, five-dose, read-out: LC50 MG_MID)?
A: 17 µM

Q: What about the “TGI MG_MID” value (NSC lung cancer; NSC lung cancer subpanel, five-dose) of the same compound?
A: 3.60 µM

Q: And the “SI (TGI)” value (NSC lung cancer; NSCL cancer, MG_MID60/subpanel MG_MID)?
A: 0.76

Q: And the GI50 (ACHN; Homo sapiens)?
A: 1.33 µM

Q: And the LC50 (ACHN; Homo sapiens)?
A: 14.8 µM

Q: What about the TGI (ACHN) of the same compound?
A: 4.38 µM

Q: And the GI50 (SK-MEL-2; Homo sapiens)?
A: 1.29 µM

Q: What about the CC50 (SK-MEL-2; [2]) of the same compound?
A: 16.2 µM

Q: What about the TGI (SK-MEL-2) of the same compound?
A: 3.33 µM

Q: And the GI50 (SW-620; Homo sapiens)?
A: 0.902 µM

Q: What about the CC50 (SW-620; [2]) of the same compound?
A: 3.44 µM

Q: What about the TGI (SW-620) of the same compound?
A: 1.76 µM

Q: And the GI50 (MDA-MB-31/ATCC; Homo sapiens)?
A: 0.779 µM

Q: What about the CC50 (MDA-MB-31/ATCC; [2]) of the same compound?
A: 2.88 µM

Q: And the TGI (MDA-MB-31/ATCC)?
A: 1.50 µM

Q: And the GI50 (HCC-2998; Homo sapiens)?
A: 0.922 µM

Q: And the CC50 (HCC-2998; [2])?
A: 3.6 µM

Q: And the TGI (HCC-2998)?
A: 1.82 µM

Q: And the “TGI MG_MID” value (CNS cancer; CNS cancer subpanel, five-dose)?
A: 2.84 µM

Q: What about the “SI (TGI)” value (CNS cancer; CNS cancer, MG_MID60/subpanel MG_MID) of the same compound?
A: 0.96

Q: And the GI50 (CNS cancer; Homo sapiens, CNS cancer subpanel, five-dose, read-out: GI50 MG_MID)?
A: 1.03 µM

Q: And the CC50 (CNS cancer; Homo sapiens, CNS cancer subpanel, five-dose, read-out: LC50 MG_MID)?
A: 8.69 µM
